Assay results taken from patent US8410097B2 (priority 2005, dated 2013).
Read-outs that look alike come from different tables or passages of the source.

Tests used:
[1] = target: T1, CB1 cannabinoid receptor (Rattus norvegicus, UniProt P20272); assay: biochemical; format: binding; conditions: for Ki: rat forebrain membranes; for Selectivity CB1: CB1 over CB2 binding selectivity (ratio of Ki)
T1 construct: membranes were prepared from rat forebrain membranes; from tissue; host or cells: rat forebrain membranes
T1 sequence (P20272 whole entry): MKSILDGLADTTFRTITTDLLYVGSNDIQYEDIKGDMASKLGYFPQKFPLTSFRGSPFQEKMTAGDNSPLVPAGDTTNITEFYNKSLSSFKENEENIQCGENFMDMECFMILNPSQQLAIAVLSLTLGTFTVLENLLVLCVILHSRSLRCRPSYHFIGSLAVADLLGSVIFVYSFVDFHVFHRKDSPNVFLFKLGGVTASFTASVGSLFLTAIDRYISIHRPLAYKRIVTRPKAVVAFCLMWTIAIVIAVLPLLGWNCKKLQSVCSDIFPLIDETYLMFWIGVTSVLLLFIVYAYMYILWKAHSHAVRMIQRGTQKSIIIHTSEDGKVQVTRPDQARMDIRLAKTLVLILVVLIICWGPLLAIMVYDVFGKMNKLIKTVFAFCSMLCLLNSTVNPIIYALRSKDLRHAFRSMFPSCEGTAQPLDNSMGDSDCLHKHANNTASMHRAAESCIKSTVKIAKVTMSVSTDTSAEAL
Protocol: Some of the inventive analogs were tested for CB2 receptor binding affinity and for CB1 receptor affinity (to determine selectivity). […] The lower the Ki value the higher the binding affinity. […]
Membranes, previously frozen at −80° C., were thawed on ice. To the stirred suspension was added three volumes of TME (25 mM Tris-HCl buffer, 5 mM MgCl2 and 1 mM EDTA) at a pH 7.4. The suspension was incubated at 4° C. for 30 min. At the end of the incubation, the membranes were pelleted and washed three times with TME.
(§1) The treated membranes were subsequently used in the binding assay described below. Approximately 30 μg of membranes were incubated in silanized 96-well microtiter plate with TME containing 0.1% essentially fatty acid-free bovine serum albumin (BSA), 0.8 nM [^3H] […] Radioactivity was detected using MicroScint 20 scintillation cocktail added directly to the dried filterplates, and the filterplates were counted using a Packard Instruments Top-Count. […] Data collected from three independent experiments performed with duplicate determinations was normalized between 100% and 0% specific binding for [^3H] […] The normalized data was analyzed using a 4-parameter nonlinear logistic equation to yield IC50 values.

[2] = target: CB2 cannabinoid receptor (Mus musculus, UniProt P47936); assay: biochemical; format: binding; conditions: mouse spleen membranes
CB2 cannabinoid receptor, sequence (P47936 whole entry): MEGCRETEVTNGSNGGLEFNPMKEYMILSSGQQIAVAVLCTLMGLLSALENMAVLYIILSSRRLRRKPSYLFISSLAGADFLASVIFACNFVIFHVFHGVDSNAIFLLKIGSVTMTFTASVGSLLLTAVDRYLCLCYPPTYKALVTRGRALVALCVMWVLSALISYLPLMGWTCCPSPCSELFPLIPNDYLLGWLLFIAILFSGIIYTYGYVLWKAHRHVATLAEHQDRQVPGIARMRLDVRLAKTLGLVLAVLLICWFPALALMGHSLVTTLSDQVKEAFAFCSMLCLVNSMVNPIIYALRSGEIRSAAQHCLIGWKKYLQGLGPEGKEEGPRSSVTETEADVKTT
Protocol: Some of the inventive analogs were tested for CB2 receptor binding affinity and for CB1 receptor affinity (to determine selectivity). […] The lower the Ki value the higher the binding affinity.
as §1
Silanized centrifuge tubes were used throughout to minimize receptor loss due to adsorption. The CB2 binding assay was conducted in the same manner as for the CB1 binding assay. The binding affinities (Ki) were also expressed in nanomoles (nM).

[3] = CB1 Ki, Table 7, 0.8 nM [3H] CP-55,940
[4] = Table 7, [3H] CP-55,940, read-out: CB2 Ki
[5] = CB1 Ki, Table 6, 0.8 nM [3H] CP-55,940
[6] = Table 6, [3H] CP-55,940, read-out: CB2 Ki
[7] = Receptor Affinities Ki (nM) CB1, Table 10
[8] = Table 10, read-out: Receptor Affinities Ki (nM) CB2
[9] = Receptor Affinities Ki (nM) CB1, Table 9
[10] = Table 9, read-out: Receptor Affinities Ki (nM) CB2
[11] = Table 6, 0.8 nM [3H] CP-55,940, read-out: CB1 Ki
[12] = Receptor Affinities Ki (nM) CB1, Table 8
[13] = Table 8, read-out: Receptor Affinities Ki (nM) CB2
[14] = CB2 Ki, Table 6, [3H] CP-55,940

Compound: Cc1c(C(=O)NN2CCCCC2)nn(-c2ccc(Cl)cc2Cl)c1-c1ccc(C#CCO)cc1 [Compound 2-1, 1-(2,4-Dichloro-phenyl)-5-[4-(3-hydroxy-prop-1-ynyl)-phenyl]-4-methyl-1H-pyrazole-3-carboxylic acid piperidin-1-ylamide]
- Ki [1, 3]: 33.1 nM
- Ki [2, 4]: 1490 nM

Compound: Cc1c(C(=O)NN2CCCCC2)nc(-c2ccc(Cl)cc2Cl)n1-c1ccc(I)cc1 [Compound 1-6]
- Ki [1, 5]: 2.7 nM
- Ki [2, 6]: 4310 nM

Compound: Cc1c(C(=O)NN2CCCCC2)nn(-c2ccc(Cl)cc2Cl)c1-c1ccc(C#Cc2ccncc2)cc1 [Compound 5-12]
- Ki [1, 7]: 8 nM
- Selectivity CB1 ([1]; Table 10): 52
- Ki [2, 8]: 421 nM

Compound: O=C(NN1CCCCC1)c1nn(-c2ccc(Cl)cc2Cl)c(-c2ccc(CCCCO)cc2)c1CO [Compound 4-3]
- Ki [1, 9]: 31 nM
- Selectivity CB1 ([1]; Table 9): 243
- Ki [2, 10]: 7540 nM

Compound: CN(C(=O)c1nc(-c2ccc(Cl)cc2Cl)n(-c2ccc(-c3nnn[nH]3)cc2)c1CO)C1CCCCC1 [Compound 1-25]
- Ki [1, 11]: 5210 nM
- Ki [2, 6]: 858 nM

Compound: Cc1c(C(=O)NN2CCCCC2)nn(-c2ccc(Cl)cc2Cl)c1-c1ccc(C#CCCCCO)cc1 [Compound 3-7]
- Ki [1, 12]: 3 nM
- Selectivity CB1 ([1]; Table 8): 39
- Ki [2, 13]: 116 nM

Compound: Cc1c(C(=O)NN2CCCCC2)nn(-c2ccc(Cl)cc2Cl)c1-c1ccc(C#CCN)cc1.Cl [Compound 5-5]
- Ki [1, 7]: 30 nM
- Selectivity CB1 ([1]; Table 10): 1
- Ki [2, 8]: 30 nM

Compound: Cc1c(C(=O)NN2CCCCC2)nn(-c2ccc(Cl)cc2Cl)c1-c1ccc(C#CCNC(=O)OC(C)(C)C)cc1 [Compound 5-2]
- Ki [1, 7]: 68 nM
- Selectivity CB1 ([1]; Table 10): 1.3
- Ki [2, 8]: 88 nM

Compound: O=C(NN1CCCCC1)c1nc(-c2ccc(Cl)cc2Cl)n(-c2ccc(Br)cc2)c1CO [Compound 1-4]
- Ki [1, 5]: 10.8 nM
- Ki [2, 14]: 319 nM

Compound: Cc1c(C(=O)NN2CCCCC2)nc(-c2ccc(Cl)cc2Cl)n1-c1ccc(C#N)cc1 [Compound 1-8]
- Ki [1, 5]: 57 nM
- Ki [2, 6]: 7220 nM

Compound: O=C(NN1CCCCC1)c1nc(-c2ccc(Cl)cc2Cl)n(-c2ccc(-c3cccnc3)cc2)c1CO [Compound 1-15]
- Ki [1, 5]: 23 nM
- Ki [2, 6]: 2780 nM

Compound: CN(C(=O)c1nc(-c2ccc(Cl)cc2Cl)n(-c2ccc(-c3nnn(C)n3)cc2)c1CO)C1CCCCC1 [Compound 1-27]
- Ki [1, 5]: 19 nM
- Ki [2, 6]: 620 nM

Compound: Cc1c(C(=O)NN2CCCCC2)nc(-c2ccc(Cl)cc2Cl)n1-c1ccc(-c2nnn[nH]2)cc1 [Compound 1-16]
- Ki [1, 11]: 404 nM
- Ki [2, 6]: 10700 nM

Compound: O=C(NN1CCCCC1)c1nn(-c2ccc(Cl)cc2Cl)c(-c2ccc(C#CCO)cc2)c1CO [Compound 3-4]
- Ki [1, 12]: 21 nM
- Selectivity CB1 ([1]; Table 8): 15
- Ki [2, 13]: 313 nM

Compound: Cc1c(C(=O)NN2CCCCC2)nn(-c2ccc(Cl)cc2Cl)c1-c1ccc(C#CCCCCN)cc1 [Compound 5-15]
- Ki [1, 7]: 87 nM
- Selectivity CB1 ([1]; Table 10): 17
- Ki [2, 8]: 1530 nM

Compound: O=C(NN1CCCCC1)c1nc(-c2ccc(Cl)cc2Cl)n(-c2ccc(I)cc2)c1CO [Compound 1-7]
- Ki [1, 5]: 1.5 nM
- Ki [2, 6]: 1650 nM

Compound: Cc1c(C(=O)N(C)C2CCCCC2)nc(-c2ccc(Cl)cc2Cl)n1-c1ccc(CCCO)cc1 [Compound 4-7]
- Ki [1, 9]: 100 nM
- Selectivity CB1 ([1]; Table 9): 3
- Ki [2, 10]: 290 nM

Compound: Cc1c(C(=O)NN2CCCCC2)nn(-c2ccc(Cl)cc2Cl)c1-c1ccc(C#CCCC#N)cc1 [Compound 2-3]
- Ki [1, 3]: 0.35 nM
- Ki [2, 4]: 127 nM

Compound: Cc1c(C(=O)N(C)C2CCCCC2)nc(-c2ccc(Cl)cc2Cl)n1-c1ccc(C#CCO)cc1 [Compound 3-9]
- Ki [1, 12]: 27 nM
- Selectivity CB1 ([1]; Table 8): 9
- Ki [2, 13]: 257 nM

Compound: Cc1c(C(=O)NN2CCCCC2)nc(-c2ccc(Cl)cc2Cl)n1-c1ccc(-c2cccnc2)cc1 [Compound 1-14]
- Ki [1, 5]: 39.8 nM
- Ki [2, 6]: 3330 nM

Compound: Cc1c(C(=O)NN2CCCCC2)nn(-c2ccc(Cl)cc2Cl)c1-c1ccc(C#Cc2cccnc2)cc1 [Compound 5-10]
- Ki [1, 7]: 15 nM
- Selectivity CB1 ([1]; Table 10): 3.6
- Ki [2, 8]: 54 nM

Compound: Cn1nnc(-c2ccc(-n3c(-c4ccc(Cl)cc4Cl)nc(C(=O)NN4CCCCC4)c3CO)cc2)n1 [Compound 1-21]
- Ki [1, 5]: 10.5 nM
- Ki [2, 6]: 539 nM

Compound: N#CCCC#Cc1ccc(-c2c(CO)c(C(=O)NN3CCCCC3)nn2-c2ccc(Cl)cc2Cl)cc1 [Compound 3-1]
- Ki [1, 12]: 6 nM
- Selectivity CB1 ([1]; Table 8): 44
- Ki [2, 13]: 265 nM

Compound: Cc1c(C(=O)NN2CCCCC2)nn(-c2ccc(Cl)cc2Cl)c1-c1ccc(C#CC(C)(C)C)cc1 [Compound 5-11]
- Ki [1, 7]: 25 nM
- Selectivity CB1 ([1]; Table 10): 1
- Ki [2, 8]: 25 nM

Compound: Cc1c(C(=O)NN2CCCCC2)nn(-c2ccc(Cl)cc2Cl)c1-c1ccc(C#CC2(O)CCCCC2)cc1 [Compound 5-7]
- Ki [1, 7]: 20 nM
- Selectivity CB1 ([1]; Table 10): 3.5
- Ki [2, 8]: 68 nM

Compound: O=C(NC1CCCCC1)c1nc(-c2ccc(Cl)cc2Cl)n(-c2ccc(I)cc2)c1CO [Compound 1-12]
- Ki [1, 5]: 19 nM
- Ki [2, 6]: 22400 nM

Compound: Cc1c(C(=O)NN2CCCCC2)nn(-c2ccc(Cl)cc2Cl)c1-c1ccc(C#CCN(C)C)cc1.Cl [Compound 5-3]
- Ki [1, 7]: 30 nM
- Selectivity CB1 ([1]; Table 10): 2.2
- Ki [2, 8]: 66 nM

Compound: [N-]=[N+]=NCc1c(C(=O)NN2CCCCC2)nc(-c2ccc(Cl)cc2Cl)n1-c1ccc(Br)cc1 [Compound 1-41]
- Ki [1, 5]: 7 nM
- Ki [2, 6]: 954 nM

Compound: O=C(NN1CCCCC1)c1nc(-c2ccc(Cl)cc2Cl)n(-c2ccc(C#CCO)cc2)c1CO [Compound 1-34]
- Ki [1, 5]: 23.2 nM
- Ki [2, 14]: 5360 nM

Compound: Cc1c(C(=O)NN2CCCCC2)nn(-c2ccc(Cl)cc2Cl)c1-c1ccc(C#CCN)cc1 [Compound 5-4]
- Ki [1, 7]: 21 nM
- Selectivity CB1 ([1]; Table 10): 2
- Ki [2, 8]: 40 nM

Compound: CN(C(=O)c1nc(-c2ccc(Cl)cc2Cl)n(-c2ccc(I)cc2)c1CO)C1CCCCC1 [Compound 1-11]
- Ki [1, 5]: 6.4 nM
- Ki [2, 6]: 1150 nM

Compound: Cc1c(C(=O)NN2CCCCC2)nn(-c2ccc(Cl)cc2Cl)c1-c1ccc(C#CCN=[N+]=[N-])cc1 [Compound 3-3]
- Ki [1, 12]: 3 nM
- Selectivity CB1 ([1]; Table 8): 250
- Ki [2, 13]: 750 nM

Compound: Cc1c(C(=O)NN2CCCCC2)nn(-c2ccc(Cl)cc2Cl)c1-c1ccc(C#CCCO)cc1 [Compound 2-2]
- Ki [1, 3]: 19.7 nM
- Ki [2, 4]: 441 nM

Compound: CN(C(=O)c1nc(-c2ccc(Cl)cc2Cl)n(-c2ccc(Br)cc2)c1CO)C1CCCCC1 [Compound 1-5]
- Ki [1, 5]: 28.8 nM
- Ki [2, 6]: 3780 nM

Compound: O=C(NC1CCCCC1)c1nc(-c2ccc(Cl)cc2Cl)n(-c2ccc(Br)cc2)c1CO [Compound 1-10]
- Ki [1, 5]: 4.6 nM
- Ki [2, 6]: 3030 nM

Compound: O=C(NN1CCCCC1)c1nn(-c2ccc(Cl)cc2Cl)c(-c2ccc(C#CCCO)cc2)c1CO [Compound 3-2]
- Ki [1, 12]: 16 nM
- Selectivity CB1 ([1]; Table 8): 10
- Ki [2, 13]: 165 nM

Compound: Cc1c(C(=O)N(C)C2CCCCC2)nc(-c2ccc(Cl)cc2Cl)n1-c1ccc(-c2nnn(C)n2)cc1 [Compound 1-24]
- Ki [1, 5]: 11.2 nM
- Ki [2, 6]: 220 nM

Compound: Cc1c(C(=O)NN2CCCCC2)nc(-c2ccc(Cl)cc2Cl)n1-c1ccc(C#CCO)cc1 [Compound 1-31]
- Ki [1, 5]: 18 nM
- Ki [2, 6]: 1140 nM

Compound: CN(C(=O)Nc1nc(-c2ccc(Cl)cc2Cl)n(-c2ccc(Br)cc2)c1CO)C1CCCCC1 [Compound 1-40]
- Ki [1, 5]: 10 nM
- Ki [2, 6]: 1020 nM
